From patent US20040087842A1, “Fluorescent probes for saccharrides” (priority 2002, published 2004)
Like-named read-outs stand apart in the source and are kept apart here. Blank lines part the entries; values can stand above or below the molecule they belong to.

Key:
[1] = Fluorescence titration curves against sugar (dissociation constant), D-fructose; assay type: binding
Procedure: (§1) Stilbene-4-boronic acid (STBA), 4′-cyanostilbene-4-boronic acid (CSTBA), 4′-methoxystilbene-4-boronic acid (MSTBA) and 4′-(dimethylamino)stilbene-4-boronic acid (DSTBA) were synthesized by the Wittig reaction between the para-substituted benzaldehydes and the para-boronic acid derivative of the benzyltriphenylphosphonium bromide. This latter was synthesized by the reaction of the p-bromomethylphenylboronic acid with triphenylphosphine in toluene. […] Absorption spectrawere recorded with a Cary 50 UV-Vis spectrophotometer from Varian. Emission spectra were recorded with a Varian Eclipse spectrofluorometer from Varian. In both cases, the measurements were taken at room temperature in a 1 cm quartz cuvette. For all measurements, the absorbances of the solutions were about 0.1 corresponding to a concentration range of 2-3×10^−6 M of the fluorophore. Fluorescence quantum yields were measured against p-quaterphenyl in cyclohexane (ΦF=0.89) for trans-stilbene (ST) and STBA, anthracene in cyclohexane (φF=0.36) for CSTBA and MSTBA and Quinine sulfate in 1N sulfuric acid (ΦF=0.577) for DSTBA.
(§2) where Iacid and Ibase are the intensity limits in the acid and basic region, respectively. Titration curves against sugar were fitted and dissociation constant (KD) values were obtained using the equation: [formula]
(§3) where Io and If are the initial (no sugar) and final (plateau) intensities of the titration curves. All solutions in water and buffer contained also 33.3% […] methanol to avoid any problem due to the aggregation.

[2] = Fluorescence titration curves against sugar (dissociation constant), D-galactose; assay type: binding
Procedure: as §1, §2, §3

[3] = Fluorescence titration curves against sugar (dissociation constant), D-glucose; assay type: binding
Procedure: as §1, §2
(§4) where Io and If are the initial (no sugar) and final (plateau) intensities of the titration curves. […]

[4] = Titration curves against pH (pKa of the boronic acid group) with and without sugar; assay type: physicochemical; settings: for pKa: aqueous buffer solutions with methanol
Procedure: Titration curves against pH were measured in buffer solutions: acetate buffer for pH 4.0-5.5, phosphate buffer for pH 6.0-9.0 and carbonate buffer for pH 10,0-11.0. Titration curves were fitted and pKa (pKa=−log Ka) values were obtained using the equation: [formula]
as §2, §4

[5] = DSTBA, from reference 3; read-out: KD fructose; cited from earlier work
[6] = DSTBA, from reference 3; read-out: KD galactose; cited from earlier work
[7] = DSTBA, from reference 3; read-out: KD glucose; cited from earlier work
[8] = Fluorescence titration curves against sugar (dissociation constant), D-fructose; assay type: binding; settings: compounds 4 and 5; phosphate buffer pH 8.0/methanol 1:2 (v/v)
[9] = Stability and dissociation constants of 7 and 8 for D-glucose from steady-state and frequency-domain fluorescence; assay type: binding; settings: 1:1 complex with D-glucose, methanol/phosphate buffer pH 7.7 (1:3)
Excerpt: (§5) As discussed in the literature, the change is the intensity is attributed to the removal of the PET quenching due to the interaction between the boron and nitrogen atoms following the binding with glucose. In attempt to see the possible interference from macrobiosystems, titration curves have also been measured in presence of BSA and two detergents, one with a […] charged head group (HDTBr) and the other with a […] charged head group (SDS). BSA has a little effect on the titration curve of 7 and no effect for compound 8. The effect of BSA one compound 7 could be the result of an interaction between these two compounds. But, as the measurements are taken in a mixture of methanol and water, aggregation could not be neglect. […] To obtain a reproducible titration curve, vigorous stirring and time must be applied. In the presence of micelles, a complete inhibition of the intensity change is observed. […] For compound, the dissociation constant is in the millimolar range which is characteristic with the boronic acid group. For compound 8, this dissociation constant goes down to submillimolar range. This is due to the ability of both boronic acid group present on compound 8 to bind one molecule of glucose.
Titration curves obtain with the mean lifetime and with the phase angle and modulation are shown in FIGS. 24 and 25 respectively for both compounds. […] This is due to the fact that the short lifetime component becomes less important and gradually the decay become more monoexponential with the addition of glucose. For compound 8, the combination of larger mean lifetime change and decrease of the short lifetime component result in a larger change in the phase angle and modulation with the presence of glucose. The apparent association constants obtained with the mean lifetime, phase angle and modulation show a decrease of an order in comparison with the KD obtained with the steady-state intensity change. […] This is due to the more important contribution of the complex (probe with analyte) on the lifetime because of the higher quantum yield and longer lifetime of the latter.
Steady-state fluorescence measurements were performed in 1 cm quartz cuvette in an ISS spectrofluorometer.
Frequency-domain (FD) measurements were performed using instrumentation described previously (65). The Domain (TD measurements can also be applied to the fluorescent compounds and methods of the present invention, as readily recognized by those of ordinary skill in the art. For Example 4, an amplitude modulated UV-LED was use as light source given and peak intensity centered around 370 nm. Emission was observed through a 415 nm cut-off and a 420 nm interference filter. The FD or TD intensity decay data were analyzed by nonlinear least squares in terms of the multiexponential model: [formula]
The values of (τ) are thought to be proportional to the quantum yield of the sample. […] Stability and association constants are determined according to the method described in the literature.

[10] = Solubility observation during titrations; assay type: physicochemical; settings: methanol/water mixture
Excerpt: as §5

[11] = cited from earlier work
[12] = literature value; read-out: KD D-galactose; cited from earlier work
[13] = cited from earlier work; for decrease of emission intensity after addition of glucose: pH 7.4, literature
[14] = Yoon et al., cited from earlier work
[15] = Emission intensity change of STBA after addition of sugars; settings: phosphate buffer pH 8.0/methanol 2:1 (v/v), λex=310 nm
Excerpt: A decrease of the fluorescence emission is observed after the addition of sugar. The overall decrease is relatively weak, about 15%. Since the same intensity change is observed by increasing the pH, this change is attributed to the formation of the anionic form of the boronic acid group. […] The decrease of this pKa for the complex with sugar is also a general observation for this chelator group. […] At pH 8.0, STBA is present mostly in its neutral form. After the addition of sugar, the complex exists under the anionic form due to its lower pKa. This change from the neutral to the anionic form is at the origin of the intensity changes observed for STBA and the other complexes presented in this study. […]
Stilbene-4-boronic acid (STBA), 4′-cyanostilbene-4-boronic acid (CSTBA), 4′-methoxystilbene-4-boronic acid (MSTBA) and 4′-(dimethylamino)stilbene-4-boronic acid (DSTBA) were synthesized by the Wittig reaction between the para-substituted benzaldehydes and the para-boronic acid derivative of the benzyltriphenylphosphonium bromide. […] Absorption spectrawere recorded with a Cary 50 UV-Vis spectrophotometer from Varian. Emission spectra were recorded with a Varian Eclipse spectrofluorometer from Varian. […] For all measurements, the absorbances of the solutions were about 0.1 corresponding to a concentration range of 2-3×10^−6 M of the fluorophore. […]

[16] = stilbenes, pH 8.0, 33.3% methanol, read-out: KD D-fructose
[17] = stilbenes, pH 8.0, 33.3% methanol, read-out: KD D-galactose
[18] = stilbenes, pH 8.0, 33.3% methanol, read-out: KD D-glucose
[19] = stilbenes, 33.3% methanol, 50 mM D-fructose, read-out: pKa +D-fructose (50 mM)
[20] = stilbenes, 33.3% methanol, 50 mM D-glucose, read-out: pKa +D-glucose (50 mM)
[21] = stilbenes, solution contained 33.3% methanol, no sugar, read-out: pKa Alone
[22] = compounds 4 and 5, phosphate buffer pH 8.0/methanol 1:2 (v/v), read-out: KD galactose
[23] = compounds 4 and 5, phosphate buffer pH 8.0/methanol 1:2 (v/v), read-out: KD glucose
[24] = compounds 4 and 5, 66.6% methanol, 50 mM fructose, read-out: pKa fructose (50 mM)
[25] = compounds 4 and 5, 66.6% methanol, 170 mM glucose, read-out: pKa glucose (170 mM)
[26] = compounds 4 and 5, buffer with 66.6% (v/v) methanol, read-out: pKa no sugar
[27] = compound 6, pH 7.0, phosphate buffer/methanol 2:1
[28] = 30 MHz, read-out: KD, Modulation
[29] = 30 MHz, read-out: KD, Phase Angle
[30] = read-out: KD, Steady State Intensity

Kd [1, 16]: 2.5 mM
Kd [2, 17]: 49 mM
Kd [3, 18]: 98 mM
pKa [4, 19]: 6.61
pKa [4, 20]: 8.34
pKa [4, 21]: 9.14
Compound: CN(C)c1ccc(/C=C/c2ccc(B(O)O)cc2)cc1 [DSTBA, 4′-(dimethylamino)stilbene-4-boronic acid]
Kd [5]: 2.5 mM
Kd [6]: 49 mM
Kd [7]: 98 mM

Kd [2, 22]: 5.4 ± 0.4 mM
Kd [3, 23]: 15 ± 1 mM
pKa [4, 24]: 6.1 ± 0.05
pKa [4, 25]: 6.86 ± 0.02
pKa [4, 26]: 8.75
Kd [8]: 0.84 ± 0.03 mM
Compound: CN(C)c1ccc(/C=C/C=C/C=C/c2ccc(B(O)O)cc2)cc1 [compound 5, 1-(p-dimethylaminophenyl)-6-(p-boronophenyl)-hexa-1,3,5-triene]

Kd [1, 16]: 1 mM
Kd [2, 17]: 26 mM
Kd [3, 18]: 43 mM
pKa [4, 19]: 6.36
pKa [4, 20]: 7.88
pKa [4, 21]: 8.58
Compound: COc1ccc(/C=C/c2ccc(B(O)O)cc2)cc1 [MSTBA, 4′-methoxystilbene-4-boronic acid]

Kd [2, 22]: 5.9 ± 0.6 mM
Kd [3, 23]: 17 ± 2 mM
pKa [4, 24]: 6.19 ± 0.04
pKa [4, 25]: 6.97 ± 0.02
pKa [4, 26]: 8.9
Kd [8]: 1.12 ± 0.05 mM
Compound: CN(C)c1ccc(/C=C/C=C/c2ccc(B(O)O)cc2)cc1 [compound 4, 1-(p-Dimethylaminophenyl)-4-(p-boronophenyl)-buta-1,3-diene]

Continued, molecule first:

Compound: CN(C)c1ccc(-c2cnc(-c3ccc(B(O)O)cc3)o2)cc1 [compound 6, 5-(4′-Dimethylaminophenyl)-2-(4″-boronophenyl)oxazol]
increase of the emission intensity in presence of fructose [1, 27]: about 5 fold
Kd ([1]; compound 6, phosphate buffer/methanol (2:1 v/v) at pH 7.0, read-out: Dissociation constant (KD) for fructose): 1.9 ± 0.1 mM
increase of the emission intensity in presence of galactose [2, 27]: about 3 fold
Kd ([2]; compound 6, phosphate buffer/methanol (2:1 v/v) at pH 7.0, read-out: Dissociation constant (KD) for galactose): 14 ± 1 mM
increase of the emission intensity in presence of glucose [3, 27]: about 3 fold
Kd ([3]; compound 6, phosphate buffer/methanol (2:1 v/v) at pH 7.0, read-out: Dissociation constant (KD) for glucose): 37 ± 3 mM
pKa in presence of fructose ([4]; compound 6): 5.6
pKa in presence of glucose ([4]; compound 6): 6.5
pKa in absence of sugar ([4]; compound 6, λex=350 nm): 7.8

Compound: CN(Cc1ccccc1B(O)O)Cc1c2ccccc2cc2ccccc12 [compound 7, 9-[[N-Methyl-N-(o-boronobenzyl)amino]methyl]anthracene]
Log KS, Mean Lifetime [9]: 2.5 (0.994:4)
Log KS, Steady State Intensity [9]: 1.7 (0.993:7)
Log KS, Modulation ([9]; 30 MHz): 2.5 (0.999:6)
Log KS, Phase Angle ([9]; 30 MHz): 2.2 (0.993:5)
Kd [9, 28]: 3.4 mM
Kd [9, 29]: 6.1 mM
Kd ([9]; read-out: KD, Mean Lifetime): 3.2 mM
Kd [9, 30]: 19.3 mM
solubility [10]: relatively low solubility

Compound: OB(O)c1ccccc1 [phenylboronic acid]
Kd ([11]; literature value, read-out: KD D-fructose): 0.2 mM
Kd [12]: 3.6 mM
Kd ([13]; literature value, read-out: KD D-glucose): 9.1 mM

Compound: N#Cc1ccc(/C=C/c2ccc(B(O)O)cc2)cc1 [CSTBA, 4′-cyanostilbene-4-boronic acid]
Kd ([1]; pH 7.0, read-out: dissociation constant for D-fructose): 3.22 mM
Kd ([1]; pH 7.5, read-out: dissociation constant for D-fructose): 1.19 mM
Kd [1, 16]: 0.65 mM
Kd [2, 17]: 12.5 mM
Kd [3, 18]: 18.3 mM
pKa [4, 19]: 5.84
pKa [4, 20]: 7.3
pKa [4, 21]: 8.17

Compound: CN(Cc1ccccc1B(O)O)Cc1c2ccccc2c(CN(C)Cc2ccccc2B(O)O)c2ccccc12 [compound 8, 9,10-Bis[[N-methyl-N-(o-boronobenzyl)amino]methyl]anthracene]
Log KS, Mean Lifetime [9]: 4.4 (0.992:11)
Log KS, Steady State Intensity [9]: 3.1 (0.998:12)
Log KS, Modulation ([9]; 30 MHz): 4.1 (0.995:7)
Log KS, Phase Angle ([9]; 30 MHz): 4.5 (0.996:10)
Kd [9, 28]: 0.079 mM
Kd [9, 29]: 0.032 mM
Kd ([9]; read-out: KD, Mean Lifetime): 0.04 mM
Kd [9, 30]: 0.79 mM
solubility [10]: relatively low solubility

Compound: OB(O)c1ccc2cc3ccccc3cc2c1 [anthrylboronic acid, anthryl-2-boronic acid]
decrease of emission intensity after addition of fructose ([11]; pH 7.4, literature): 30%
decrease of emission intensity after addition of glucose [13]: about 10%
decrease of emission intensity after addition of glucose ([13]; listed as anthryl-2-boronic acid): 10%
pKa of complex with fructose ([14]; saturated fructose solution): 5.9
pKa ([14]; uncomplexed): 8.8

Compound: OB(O)c1ccc(/C=C/c2ccccc2)cc1 [STBA, stilbene-4-boronic acid]
Kd [1, 16]: 3.4 mM
Kd [2, 17]: 6 mM
Kd [3, 18]: 11 mM
pKa [4, 19]: 6.4
pKa [4, 20]: 7.63
pKa [4, 21]: 8.86
overall decrease of the fluorescence emission after addition of sugar [15]: about 15%
